In patent US6177475A, “Methods of using integrin modulators for treatment of inflammation” (priority 1997, dated 2001):

System: neutrophils (β2 integrins)
Test: N-formyl-L-methionyl-L-leucyl-L-phenylalanine-stimulated neutrophil aggregation
Assay type: cell-based
Description: Neutrophil aggregation was assayed as described above for the platelet system, with some modifications. Freshly isolated neutrophils were finally suspended in a buffer (120 mM NaCl, 4 mM KCl, 10 mM dextrose, 2 mM CaCl2·2H2 O, 2 mM MgCl2·6H2 O, and 20 mM Tris; pH 7.4) to the final density of 10^7 cells per ml. Aliquots of neutrophil suspension (0.25 ml in siliconized glass cuvettes; 10^7 cells per ml) were stirred in the cell of the aggregometer with 5 micrograms per ml cytochalasin B (1000 rpm, 37° C.) for 1 min. […] Maximum LT (100%) was calibrated with the same buffer.
The requirement of integrins for the formation of cell-to-cell contacts in each of these systems has long been established. It is known that in platelets the relevant integrin is GP IIb/IIIa (β3). Neutrophil aggregation is underlain by interactions of β2 integrins (e.g., LFA-1 and/or Mac-1) with their surface counterstructures, while cohesion of T-cells is supported by both β2 integrins and fibronectin-binding β1 integrins (e.g., VLA-4 and VLA-5).

C=CCSSC=CC[S+]([O-])CC=C (centres unmarked) [Ajoene, 4,5,9-trithiadodeca-1,6,11-triene-9-oxide] was tested, and the IC100 (Neutrophil, stimulus N-formyl-L-methionyl-L-leucyl-L-phenylalanine 10^-7 M) was ~10 µM and the “deaggregation of aggregated neutrophils” value (added to aggregated neutrophils) was “caused rapid deaggregation”.
